The record followed here is ChEMBL document CHEMBL1143688 (J Med Chem, 2007).

pIC50: −log10 of the molar value.

One test concerns the target Phosphodiesterase 3 (Homo sapiens, UniProt Q14432+Q13370). The test is described as follows: Inhibition of human platelet PDE3.
In another test the test system is Plasma. The test can be described thus: Inhibition of 10.0 ug/mL collagen-induced platelet aggregation in human platelet rich plasma. The format is functional.

As usually defined, the IC50 is the midpoint of a concentration-inhibition curve. Low values mean higher potency, high ones lower potency. The pIC50 is the negative decadic logarithm of the IC50, by convention in mol/L. Read a low pIC50 as a large IC50.

Regarding `Cc1c(OCCN2CCOCC2)ccc2c(N3CCNCC3)cc(=O)oc12`, at Phosphodiesterase 3, the IC50 worked out at 0.078 µM. `Cc1c(OCc2cccnc2)ccc2c(N3CCNCC3)cc(=O)oc12` registered an IC50 against Phosphodiesterase 3 of 0.037 µM.

`O=c1cc(N2CCNCC2)c2ccccc2o1` gave a pIC50 in the test with Plasma of 4.44.

Compound `O=c1cc(N2CCNCC2)oc2ccccc12` had a pIC50 in the test on Plasma of 4.22. `O=C1CCc2cc(OCCCCc3nnnn3C3CCCCC3)ccc2N1` [CILOSTAZOL] registered an IC50 at Phosphodiesterase 3 of 0.28 µM. That is a sub-micromolar value.
